In paper PMC5490399, “Glycosaminoglycan Binding and Non-Endocytic Membrane Translocation of Cell-Permeable Octaarginine Monitored by Real-Time In-Cell NMR Spectroscopy” (Pharmaceuticals, 2017):
Non-standard residues stand in square brackets, D forms with d. Residues, ends and D or L forms follow the SMILES beside them. Phe(4-CF3) = N[C@@H](Cc1ccc(C(F)(F)F)cc1)C(=O)O

Assays:
Type in all cases: cell-based, human
[1] = tested on: HL60 cells; details: 100 μM
Protocol: (§1) One-dimensional in-cell ^19F NMR measurements were carried out at 376.2 MHz by using a JEOL ECA400 NMR spectrometer equipped with a superconducting magnet of 9.4 T. A multinuclear probe (JEOL, NM40T10A/AT) for a 10-mm diameter tube was used. Detailed procedures of the measurement are described elsewhere. Briefly, HL60 cells (the final concentration, 1 × 10^7 cells/mL) were suspended in phosphate-buffered saline (PBS, pH 7.4) at 4 °C and put into a NMR tube. In order to confirm no contribution of energy-dependent endocytosis at 4 °C, the comparative measurement was also performed at 37 °C. To avoid cellular toxicity, the amount of D2O used for the signal lock was decreased to 10%. The sample was gently rotated to prevent the sedimentation of the cells. Field-gradient shimming was applied before the addition of the peptide, to quickly attain the spectral resolution. The measurements started immediately after the thermal equilibrium was attained, 1.5 min after the addition of the ^19F-labeled peptides. The final concentrations of ^19F-R8 and ^19F-T6 were 80 μM and 100 μM, respectively, and these were high enough to observe non-endocytic translocation. […] Cell viability, assessed by the trypan blue staining after the NMR measurement at 4 °C, was 92% ± 1% for ^19F-R8 and 94% ± 1% for ^19F-T6 with respect to the control value, 94% ± 2%. […]

[2] = tested on: HL60 cells
Protocol: as §1, with “peptides.” for “peptides. The final concentrations of ^19F-R8 and ^19F-T6 were 80 μM and 100 μM, respectively, and these were high enough to observe non-endocytic translocation.”
Cell peptide concentrations inside and outside were estimated by using the signal intensities of real-time ^19F NMR difference spectra in Figure 2b. Figure A1 illustrates how peptide concentrations were determined from the ^19F NMR spectra. […]
The concentration of these three components can be evaluated from the signal intensities by integrating the respective peak areas. […] Since the total ^19F-R8 concentration is 80 μM, the concentrations of free, bound to GAG, and membrane components are calculated to be […], 9, and 5 μM, respectively.
Figure A1 Illustration of the signal intensity estimation in the ^19F NMR difference spectrum. […] The concentration of these three components can be evaluated from the signal intensities by integrating the respective peak areas (see text).

[3] = tested on: HL60 cells; test: Steady state 19F NMR after cell fractionation (final distribution); details: 19F NMR at 4 °C
Protocol: In the previous sections, we succeeded in comprehensive observation and quantitative analysis of the non-endocytic translocation of ^19F-R8 to the cell inside. To confirm that ^19F-R8 is actually transferred to cytosol across the cell membrane, the final distribution of ^19F-R8 was evaluated by cell fractionation after equilibrium was attained in real-time NMR measurements. Membrane solubilization and centrifugation techniques were combined in accordance with Scheme 1. First, we examined how much of ^19F-R8 was finally bound to cells. In Figure 7a, the ^19F NMR spectra of ^19F-R8 in the supernatant I is compared with total ^19F-R8 as a control at 4 °C. The ^19F NMR signal intensity of the supernatant I corresponds to ^19F-R8 that is still in a free (unbound) state under equilibrium. […] The value is consistent with the result of the real-time in-cell NMR measurement showing about 65 μM (81%) of ^19F-R8 is remaining in a free state after the equilibrium is attained (Figure 6). Next, to confirm that ^19F-R8 is actually bound to HL60 cell, the cell pellet I was solubilized by lysis buffer containing 1% Triton X-100. After the centrifugation, the supernatant II was subject to ^19F NMR measurement at 4 °C. The spectrum is shown in Figure 7b as Lysate, and 13% of the initial ^19F-R8 was detected.
It is considered that three components of ^19F-R8 are contained in the Lysate. They include ^19F-R8 bound to GAG or cell membrane, and ^19F-R8 in cytosol. We separated these components as the supernatant III and the pellet III by centrifuging the Lysate at 100,000× g. Supernatant III consists of ^19F-R8 in cytosol, and pellet III contains ^19F-R8 bound to GAG or cell membrane (referred as Membrane); see Scheme 1. […] It should be noted that the observed chemical shift of NMR signal in this system is too complicated to understand. For example, the cell solubilization exposes ^19F-R8 to numerous molecules derived from cells. Also, the cytosol fraction was obtained by lyophilization of 50 mL lysis buffer A. This leads to the increased concentrations of components (Triton X-100, Tris-HCl, EDTA, NaCl in lysis buffer A) in the final sample to be measured. The condition of the solvent such as ionic strength and pH affects the chemical shift of ^19F-R8 NMR signal. Thus the integral NMR intensity is useful for the steady state NMR spectra because it is basically proportional to the nuclear concentration.
The amount of ^19F-R8 finally delivered to the cytosol was quantified by ^19F NMR under equilibrium in combination with the cell fractionation using membrane solubilization and centrifugation. The cell fractionation procedures are summarized in Scheme 1. After the real-time ^19F NMR measurement, 4 mL of the sample were centrifuged at 1500× g for 5 min at 4 °C. Pellet I was washed twice with 4 mL of PBS and centrifuged again. Then the 8 mL of supernatant I was collected and subject to ^19F NMR measurement at 4 °C, to quantify free ^19F-R8. Next, 4 mL of lysis buffer A (1% Triton X-100, 50 mM Tris-HCl, 50 mM EDTA, 150 mM NaCl, 10% D2O) was added to pellet I, and left for 15 min on ice to complete the cell membrane solubilization. The solution was centrifuged at 15,000× g for 15 min at 4 °C, to separate pellet II and supernatant II. Then, supernatant II was collected and subjected to ^19F NMR measurement at 4 °C (called Lysate). After measurement, 50 mL of lysis buffer A was added and centrifuged at 100,000× g for 3 h at 4 °C. […]

| SMILES | Cell viability [1] | interaction with HL60 cells (change of 19F NMR and difference spectrum) [2] | peptide in a free state (supernatant I) under equilibrium ([3]; HL60, after real-time NMR at 4 °C, centrifugation 1500× g, pH 7.4, versus total peptide) [%] | peptide in cytosol fraction (supernatant III) ([3]; Lysate centrifuged at 100,000× g) | peptide in membrane fraction (pellet III) ([3]; Lysate centrifuged at 100,000× g, equilibrium state) | peptide detected in Lysate (supernatant II), of the initial peptide ([3]; pellet I solubilized with 1% Triton X-100 lysis buffer, 15,000× g, pH 7.5) [%] | peptide in DNA and cytoskeleton fraction (pellet II) ([3]; pellet II solubilized) | time at which transfer to cytosol was first observed ([2]; HL60, PBS pH 7.4, 4 °C, 80 μM peptide) | degradation of peptide in the presence of HL60 cells (integral 19F NMR intensity) ([2]; pH 7.4) |
| --- | --- | --- | --- | --- | --- | --- | --- | --- | --- |
| CC[C@H](C)[C@H](NC(=O)CNC(=O)[C@H](CO)NC(=O)[C@H](CC(=O)O)NC(=O)[C@H](Cc1ccc(C(F)(F)F)cc1)NC(=O)[C@@H](NC(=O)[C@@H](N)[C@@H](C)O)C(C)C)C(=O)N[C@@H](CO)C(=O)N[C@@H](CCC(=O)O)C(=O)N[C@H](C(=O)N[C@@H](CCCNC(=N)N)C(=O)O)C(C)C [^19F-T6, reference compound] (H-TV[Phe(4-CF3)]DSGISEVR-OH) | 94% ± 1% | no interaction occurs |  |  |  |  |  |  |  |
| CC(=O)N[C@@H](Cc1ccc(C(F)(F)F)cc1)C(=O)N[C@@H](CCCNC(=N)N)C(=O)N[C@@H](CCCNC(=N)N)C(=O)N[C@@H](CCCNC(=N)N)C(=O)N[C@@H](CCCNC(=N)N)C(=O)N[C@@H](CCCNC(=N)N)C(=O)N[C@@H](CCCNC(=N)N)C(=O)N[C@@H](CCCNC(=N)N)C(=O)N[C@@H](CCCNC(=N)N)C(N)=O [^19F-R8] |  |  | 77 | observed in the cytosol fraction | within the experimental error | 13 | not yet detectable | around 5 min | no degradation |
